Experimental findings from ChEMBL document CHEMBL1201862, “PubChem BioAssay data set” (2004) are described below.

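Values below derive from 48-hour exposures of cells grown in 96-well plates, with endpoints linearly interpolated between the two concentrations bracketing the appropriate inhibition level. GI50 = concentration required for 50% inhibition of growth.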 Active and inactive are the calls of the source. No stated cut-off is given here; in the data, active = GI50 up to about 1.1 µM and inactive = higher.

Among the test systems are HCC 2998; HOP-62; SF-268; HOP-92; NCI-H23; 786-0; SNB-19; SK-MEL-5; COLO 205; T47D; HCT-116; MDA-MB-435; HT-29; SW-620; LOX IMVI; MOLT-4; HCT-15; SN12C; SNB-75; TK-10.
Common to all, as to experiment: NCI anticancer screen, dose series, 48 h

On to `CN(C)CCCNc1ccc2ncn3c4ccc(O)cc4c(=O)c1c23`, for which the GI50 with HCC 2998 was 4430 nM (inactive); with HOP-62, 538 nM (active); with SF-268, 957 nM (active); in the test on HOP-92, 705 nM (active); with NCI-H23 it was 716 nM (active); with 786-0, 692 nM (active). Besides, the GI50 in the test on SNB-19 was 1240 nM (inactive); in the test with SK-MEL-5, 640 nM (active); with COLO 205, 1110 nM (active); with T47D, 12000 nM (inactive); with HCT-116 it was 458 nM (active); in the test on MDA-MB-435, 4880 nM (inactive). Moreover, the GI50 in the test with HT-29 was 1300 nM (inactive); with SW-620 it was 647 nM (active); with LOX IMVI, 607 nM (active); in the test with MOLT-4, 40.6 nM (active); with HCT-15, 1910 nM; with SN12C, 500 nM (active). The values for the GI50 with SNB-75 and in the test with TK-10 were 601 nM (active) and 1760 nM (inactive), respectively.
